Test systems include SR leukemia; BT-549 breast; HOP-62 NSCLC; SK-MEL-28 melanoma; A549 NSCLC; HCT-116 colon; IGROV1 ovarian; MDA-MB-231 breast; NCI-H226 lung; NCI-H460 lung; HOP-92 NSCLC; RPMI-8226 leukemia.
Experiment in all cases: inhibition of tumour cell growth, NCI panel, 48 h

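Briefly, cells in 96-well plates were exposed to five compound concentrations for 48 h, and endpoints were estimated by linear interpolation. The concentration for full growth arrest is given as TGI.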

Consider `CC(C)(C)OC(=O)N(O)CCCn1cnc2c(N)ncnc21`, for which the TGI in the test with SR leukemia, in the test on BT-549 breast, in the test with HOP-62 NSCLC, in the test on SK-MEL-28 melanoma, in the test on A549 NSCLC and in the test with HCT-116 colon was over 100 µM throughout. The TGI in the test with IGROV1 ovarian, in the test on MDA-MB-231 breast, in the test with NCI-H226 lung, in the test with NCI-H460 lung, in the test with HOP-92 NSCLC and in the test with RPMI-8226 leukemia was over 100 µM in each case.
On to `Cn1c(-c2cccs2)cc(-c2cccs2)c1-c1ccco1`, for which the TGI in the test with SR leukemia, in the test with BT-549 breast, in the test on HOP-62 NSCLC, in the test on SK-MEL-28 melanoma, in the test with A549 NSCLC and with HCT-116 colon was over 100 µM in each case. For the same molecule, the TGI in the test with IGROV1 ovarian, in the test on MDA-MB-231 breast, with NCI-H226 lung, with NCI-H460 lung, in the test with HOP-92 NSCLC and with RPMI-8226 leukemia was over 100 µM each time.
With `O=C(NNC(c1ccccc1)C(F)(F)F)c1ccncc1` (configuration not stated), the TGI in the test with SR leukemia, in the test with BT-549 breast, in the test on HOP-62 NSCLC, in the test on SK-MEL-28 melanoma, with A549 NSCLC and with HCT-116 colon was over 100 µM throughout. Moreover, the TGI in the test with IGROV1 ovarian, in the test with MDA-MB-231 breast, in the test with NCI-H226 lung, in the test on NCI-H460 lung, in the test on HOP-92 NSCLC and in the test with RPMI-8226 leukemia was over 100 µM throughout.
As to `COc1cc(C)cc2c1c(=O)c1ccccc1n2C`, the TGI in the test with SR leukemia was 78.7 µM; with BT-549 breast, over 100 µM; in the test on HOP-62 NSCLC it was over 100 µM; with SK-MEL-28 melanoma it was over 100 µM; with A549 NSCLC, over 100 µM; in the test on HCT-116 colon, 76.3 µM. Besides, the TGI was over 100 µM in the test on IGROV1 ovarian; over 100 µM with MDA-MB-231 breast; 81.5 µM in the test with NCI-H226 lung; over 100 µM with NCI-H460 lung; 91.8 µM in the test on HOP-92 NSCLC; 66 µM in the test with RPMI-8226 leukemia.
Consider `CC(=O)Oc1cc2c(c3ncccc13)OC(C)(C)C2`, for which the TGI in the test with SR leukemia is 6 µM; with BT-549 breast, over 100 µM; with HOP-62 NSCLC, 30.6 µM; in the test with SK-MEL-28 melanoma, over 100 µM; in the test on A549 NSCLC, 27.4 µM; with HCT-116 colon, 27.5 µM. The TGI in the test on IGROV1 ovarian is 12.4 µM; in the test with MDA-MB-231 breast it was 24.4 µM; in the test with NCI-H226 lung, 33.1 µM; in the test on NCI-H460 lung, 31.3 µM; with HOP-92 NSCLC it was 27.1 µM; in the test on RPMI-8226 leukemia, over 100 µM.
Turning to `CC1(C)CC23CC(C)(C)c4cccc(c42)OCc2ccc4ccc5ccc(nc5c4n2)COc2cccc1c23`, the TGI in the test with SR leukemia, with BT-549 breast, in the test on HOP-62 NSCLC, with SK-MEL-28 melanoma, in the test with A549 NSCLC and in the test on HCT-116 colon was over 50 µM each time. For the same molecule, the TGI in the test with IGROV1 ovarian, in the test on MDA-MB-231 breast, in the test with NCI-H226 lung, with NCI-H460 lung, in the test with HOP-92 NSCLC and in the test on RPMI-8226 leukemia was over 50 µM throughout.

For the origin of these results see PubChem BioAssay (NCI).
